Data taken from publication PMC8119466, “A screen of FDA-approved drugs identifies inhibitors of protein tyrosine phosphatase 4A3 (PTP4A3 or PRL-3)” (Scientific Reports, 2021).
Where a name gives a salt, the structure may show the parent alone. Read-outs that look alike come from different tables or passages of the source.

Tests used:
Format in all cases: biochemical
recombinant PRL-2 = target: T1, recombinant PRL-2 (Homo sapiens, UniProt Q12974); assay: In vitro phosphatase assay (DiFMUP hydrolysis), PRL-2;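 also: PRL-2 activity read as DiFMUP hydrolysis after 20 min at room temperature with drug, enzyme first pre-reduced at 4 °C for 20 min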
T1 construct: 6xHis (N, cleaved yes); made in house; host or cells: E. coli One Shot BL21 Star
T1 sequence (Q12974 1-167): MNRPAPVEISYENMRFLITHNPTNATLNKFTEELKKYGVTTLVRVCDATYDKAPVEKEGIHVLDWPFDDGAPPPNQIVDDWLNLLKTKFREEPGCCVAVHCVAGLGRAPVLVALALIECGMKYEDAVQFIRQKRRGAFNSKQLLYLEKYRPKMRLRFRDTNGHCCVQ

recombinant PRL-1 = target: T2, recombinant PRL-1 (Homo sapiens, UniProt Q93096); assay: In vitro phosphatase assay (DiFMUP hydrolysis), PRL-1; also: test concentration or dose not given here
T2 construct: 6xHis (N, cleaved yes); made in house; host or cells: E. coli One Shot BL21 Star
T2 sequence (Q93096 1-173): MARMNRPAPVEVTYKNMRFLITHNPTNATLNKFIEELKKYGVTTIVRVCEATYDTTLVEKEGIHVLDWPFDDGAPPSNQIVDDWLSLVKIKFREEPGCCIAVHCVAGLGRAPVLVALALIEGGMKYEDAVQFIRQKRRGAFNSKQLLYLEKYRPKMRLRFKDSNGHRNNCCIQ

recombinant PRL-3 = target: T3, recombinant PRL-3 (Homo sapiens, UniProt O75365); assay: In vitro phosphatase assay (DiFMUP hydrolysis), PRL-3; also: test concentration or dose not given here
T3 construct: 6xHis (N, cleaved yes); made in house; host or cells: E. coli One Shot BL21 Star

[1] = FDA-approved drug screen, activity compared to DMSO

T3 sequence (O75365 whole entry): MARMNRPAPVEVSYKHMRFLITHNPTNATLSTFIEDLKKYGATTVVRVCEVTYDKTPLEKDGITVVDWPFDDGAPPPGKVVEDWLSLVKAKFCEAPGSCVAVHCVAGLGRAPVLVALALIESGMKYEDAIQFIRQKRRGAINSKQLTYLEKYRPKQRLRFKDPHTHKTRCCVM

| SMILES | % Phosphatase Activity (compared to DMSO) PRL-2 (recombinant PRL-2; [1]) | % Phosphatase Activity (compared to DMSO) PRL-1 (recombinant PRL-1; [1]) | % Phosphatase Activity (compared to DMSO) PRL-3 (recombinant PRL-3; [1]) | % Phosphatase Activity (compared to DMSO) PRL-2 (recombinant PRL-2) | % Phosphatase Activity (compared to DMSO) PRL-1 (recombinant PRL-1) | % Phosphatase Activity (compared to DMSO) PRL-3 (recombinant PRL-3) |
| --- | --- | --- | --- | --- | --- | --- |
| CN(C)CCOc1ccc(/C(=C(/CCCl)c2ccccc2)c2ccccc2)cc1 [Toremifene Citrate] | 105% | 95% | 103% |  |  |  |
| Cc1cccc(Nc2ccncc2S(=O)(=O)NC(=O)NC(C)C)c1 [Torsemide] | 93% | 99% | 77% |  |  |  |
| CC(=O)Nc1cccc(-n2c(=O)n(C3CC3)c(=O)c3c(Nc4ccc(I)cc4F)n(C)c(=O)c(C)c32)c1 [Trametinib (GSK1120212)] | 112% | 88% | 88% |  |  |  |
| NC[C@H]1CC[C@H](C(=O)O)CC1 [Tranexamic Acid] | 89% | 92% | 96% |  |  |  |
| COc1ccc(/C=C/C(=O)Nc2ccccc2C(=O)O)cc1OC [Tranilast] | 73% | 88% | 82% |  |  |  |
| O=c1n(CCCN2CCN(c3cccc(Cl)c3)CC2)nc2ccccn12 [Trazodone HCl] | 142% | 146% | 93% |  |  |  |
| Cn1c(=O)cc(N2CCC[C@@H](N)C2)n(Cc2cc(F)ccc2C#N)c1=O [Trelagliptin] | 76% | 106% | 107% |  |  |  |
| CC1=C(/C=C/C(C)=C/C=C/C(C)=C/C(=O)O)C(C)(C)CCC1 [Tretinoin] | 77% | 78% | 46% |  |  |  |
| CC(=O)OCC(COC(C)=O)OC(C)=O [Triacetin] | 96% | 93% | 85% |  |  |  |
| CC1(C)O[C@@H]2C[C@H]3[C@@H]4CCC5=CC(=O)C=C[C@]5(C)[C@@]4(F)[C@@H](O)C[C@]3(C)[C@]2(C(=O)CO)O1 [Triamcinolone Acetonide] | 95% | 99% | 78% |  |  |  |
| C[C@]12C=CC(=O)C=C1CC[C@H]1[C@@H]3C[C@@H](O)[C@](O)(C(=O)CO)[C@@]3(C)C[C@H](O)[C@@]12F [Triamcinolone] | 97% | 91% | 81% |  |  |  |
| Nc1nc(N)c2nc(-c3ccccc3)c(N)nc2n1 [Triamterene] | 6324% | 7090% | 3828% |  |  |  |
| NS(=O)(=O)c1cc2c(cc1Cl)NC(C(Cl)Cl)NS2(=O)=O (stereo not drawn) [Trichlormethiazide] | 93% | 100% | 75% |  |  |  |
| CSc1nc2cc(Cl)c(Oc3cccc(Cl)c3Cl)cc2[nH]1 [Triclabendazole] | 91% | 106% | 70% |  |  |  |
| Oc1cc(Cl)ccc1Oc1ccc(Cl)cc1Cl [Triclosan] | 106% | 100% | 96% |  |  |  |
| O=c1[nH]c(=O)n([C@H]2C[C@H](O)[C@@H](CO)O2)cc1C(F)(F)F [Trifluridine] | 101% | 89% | 91% |  |  |  |
| CC(=O)Oc1cc(C(F)(F)F)ccc1C(=O)O [Triflusal] | 105% | 108% | 78% |  |  |  |
| OC(CCN1CCCCC1)(c1ccccc1)C1CCCCC1 (stereo not drawn) [Trihexyphenidyl hydrochloride] |  |  |  | 98% | 100% | 106% |
| C[C@]12CC[C@H]3[C@@H](CC[C@@]45O[C@@H]4C(O)=C(C#N)C[C@]35C)[C@@H]1CC[C@@H]2O [Trilostane] | 110% | 97% | 88% |  |  |  |
| CCC(COC(=O)c1cc(OC)c(OC)c(OC)c1)(c1ccccc1)N(C)C (stereo not drawn) [Trimebutine] | 106% | 90% | 84% |  |  |  |

| SMILES | % Phosphatase Activity (compared to DMSO) PRL-2 (recombinant PRL-2; [1]) | % Phosphatase Activity (compared to DMSO) PRL-1 (recombinant PRL-1; [1]) | % Phosphatase Activity (compared to DMSO) PRL-3 (recombinant PRL-3; [1]) | % Phosphatase Activity (compared to DMSO) PRL-2 (recombinant PRL-2) | % Phosphatase Activity (compared to DMSO) PRL-1 (recombinant PRL-1) | % Phosphatase Activity (compared to DMSO) PRL-3 (recombinant PRL-3) |
| --- | --- | --- | --- | --- | --- | --- |
| COc1ccc(CN2CCNCC2)c(OC)c1OC [Trimetazidine dihydrochloride] | 93% | 95% | 80% |  |  |  |
| CC(CN(C)C)CN1c2ccccc2CCc2ccccc21 (stereo not drawn) [Trimipramine Maleate] | 97% | 94% | 90% |  |  |  |
| CN(C)CCN(Cc1ccccc1)c1ccccn1 [Tripelennamine HCl] | 119% | 91% | 112% |  |  |  |
| NC(CO)(CO)CO [Trometamol] |  |  |  | 105% | 102% | 82% |
| O=C(O[C@H]1C[C@H]2CC[C@@H](C1)[N+]21CCCC1)C(O)(c1ccccc1)c1ccccc1 [Trospium chloride] | 109% | 109% | 83% |  |  |  |
| COc1cc(C(=O)NC2CCCNC2)cc(OC)c1OC (stereo not drawn) [Troxipide] | 110% | 95% | 79% |  |  |  |
| CC[C@H]1OC(=O)C[C@@H](O)[C@H](C)[C@@H](O[C@@H]2O[C@H](C)[C@@H](O[C@H]3C[C@@](C)(O)[C@@H](O)[C@H](C)O3)[C@H](N(C)C)[C@H]2O)[C@@H](CC=O)C[C@@H](C)C(=O)/C=C/C(C)=C/[C@@H]1CO[C@@H]1O[C@H](C)[C@@H](O)[C@@H](OC)[C@H]1OC.O=C(O)C(O)C(O)C(=O)O [Tylosin tartrate] | 93% | 95% | 81% |  |  |  |
| CC(=O)[C@@]1(O)CC[C@H]2[C@@H]3CCC4=CC(=O)CCC4=C3[C@@H](c3ccc(N(C)C)cc3)C[C@@]21C [Ulipristal] | 92% | 95% | 79% |  |  |  |
| CC(C)Nc1cc(-c2c[nH]c(C(=O)N[C@H](CO)c3cccc(Cl)c3)c2)c(Cl)cn1 [Ulixertinib (BVD-523, VRT752271)] | 90% | 99% | 105% |  |  |  |
| Cn1ncc(Cl)c1-c1cc(C(=O)N[C@H](CN)Cc2ccc(F)c(F)c2)oc1Cl [Uprosertib (GSK2141795)] | 95% | 95% | 103% |  |  |  |
| O=c1cc[nH]c(=O)[nH]1 [Uracil] | 93% | 100% | 69% |  |  |  |
| COc1ccccc1N1CCN(CCCNc2cc(=O)n(C)c(=O)n2C)CC1.Cl [Urapidil HCl] | 97% | 98% | 92% |  |  |  |
| CCOC(N)=O [Urethane] | 100% | 99% | 91% |  |  |  |
| O=c1ccn([C@@H]2O[C@H](CO)[C@@H](O)[C@H]2O)c(=O)[nH]1 [Uridine] | 97% | 86% | 94% |  |  |  |
| C[C@H](CCC(=O)O)[C@H]1CC[C@H]2[C@@H]3[C@@H](O)C[C@@H]4C[C@H](O)CC[C@]4(C)[C@H]3CC[C@]12C [Ursodiol] | 79% | 96% | 77% |  |  |  |
| CC(C)(C)C#Cc1cc(N(C(=O)[C@H]2CC[C@H](C)CC2)[C@H]2CC[C@H](O)CC2)c(C(=O)O)s1 [VX-222 (VCH-222, Lomibuvir)] | 85% | 91% | 76% |  |  |  |
| Cc1cc(Nc2cc(N3CCN(C)CC3)nc(Sc3ccc(NC(=O)C4CC4)cc3)n2)n[nH]1 [VX-680 (Tozasertib, MK-0457)] | 87% | 89% | 82% |  |  |  |
| Cc1ccc(NC(=O)C2(c3ccc4c(c3)OC(F)(F)O4)CC2)nc1-c1cccc(C(=O)O)c1 [VX-809 (Lumacaftor)] | 96% | 112% | 90% |  |  |  |
| CC(C)[C@H](N)C(=O)OCCOCn1cnc2c(=O)nc(N)[nH]c21.Cl [Valaciclovir HCl] | 102% | 97% | 98% |  |  |  |
